From paper PMC12621175, “Scaffold Fusion and SAR Transfer with a Chemical Language Model Generates Novel Liver X Receptor Modulators” (Journal of Medicinal Chemistry, 2025) come the findings set out here.

Entries after “also recorded” stand apart in the source; their conditions may differ.

The target in one test is T1, LXRα (Homo sapiens, UniProt Q13133).
T1 construct: coding for the hinge region, and LBD of the canonical isoform of the respective nuclear receptor; expressed in transfected cells; host or cells: HEK293T
T1 sequence (Q13133 209-447 limits assumed): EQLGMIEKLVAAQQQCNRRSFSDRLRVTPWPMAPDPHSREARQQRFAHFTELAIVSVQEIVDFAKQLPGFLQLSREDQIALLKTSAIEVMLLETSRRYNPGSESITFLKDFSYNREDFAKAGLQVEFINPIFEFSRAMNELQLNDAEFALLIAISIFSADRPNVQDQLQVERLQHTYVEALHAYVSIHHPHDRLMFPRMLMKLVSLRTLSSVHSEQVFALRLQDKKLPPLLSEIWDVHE
Nature of the test: Gal4-LXRα hybrid reporter gene assay. The class given is cell-based. The following applies: for classification: applies to LXRa and LXRb; for LXR modulation in Gal4 hybrid reporter gene assays (mode of action): both LXR subtypes (LXRα and LXRβ). The method, then:
The LXR-responsive reporter ABCA1-pGL3 was used for the full-length reporter gene assay.
The day before transfection, HEK293T cells were seeded in 96-well plates (4 × 10^4 cells/well). Before transfection, the medium was changed to Opti-MEM without any supplements. Transient transfection was carried out using Lipofectamine LTX reagent (Invitrogen) according to the manufacturer’s protocol with (a) pFR-Luc (Stratagene), pRL-SV40 (Promega), and the corresponding Gal4-fusion nuclear receptor plasmid or (b) the LXR-responsive reporter ABCA1-pGL3 and pRL-SV40 (Promega). […] Each concentration was tested in duplicate, and each experiment was repeated in at least three biologically independent repeats. […] Luminescence was measured with a Spark 10 M luminometer (Tecan Deutschland GmbH). Normalization of transfection efficiency and cell growth was done by division of firefly luciferase data by renilla luciferase data multiplied by 1000, resulting in relative light units (RLU). Fold activation was obtained by dividing the mean RLU of the tested compound at a respective concentration by the mean RLU of the untreated 0.1% DMSO control. […] Separate control experiments to exclude nonspecific reporter gene activation or VP16-mediated effects were performed following the same procedure in the absence of a nuclear receptor expression plasmid (pFR-Luc, pRL-SV40, and pECE-SV40-Gal4-VP16 only).
In general terms: In a reporter assay the amount or activity of a reporter protein is the signal.

The target of another test is T2, RORα (NR1F1) (Homo sapiens, UniProt P35398).
T2 construct: coding for the hinge region, and LBD of the canonical isoform of the respective nuclear receptor; expressed in transfected cells; host or cells: HEK293T
T2 sequence (P35398 272-510 limits assumed): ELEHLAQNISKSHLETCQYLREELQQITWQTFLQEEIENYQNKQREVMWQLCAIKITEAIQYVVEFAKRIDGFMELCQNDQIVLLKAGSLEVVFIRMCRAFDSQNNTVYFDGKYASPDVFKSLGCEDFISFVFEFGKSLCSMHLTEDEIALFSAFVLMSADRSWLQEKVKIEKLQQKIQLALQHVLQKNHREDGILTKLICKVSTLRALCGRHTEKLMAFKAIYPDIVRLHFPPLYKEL
The test is described as follows: Gal4-RORα hybrid reporter gene assay (off-target profiling). The class given is cell-based. An excerpt: For the hybrid reporter gene assays, the previously reported Gal4-fusion receptor plasmids pFA-CMV-hRORα-LBD, pFA-CMV-hRORβ-LBD, pFA-CMV-hRORγ-LBD, pFA-CMV-hLXRα-LBD, pFA-CMV-hLXRβ-LBD, pFA-CMV-hFXR-LBD, pFA-CMV-hPXR-LBD, and pFA-CMV-hRXRα-LBD, coding for the hinge region, and LBD of the canonical isoform of the respective nuclear receptor were used. pFR-Luc (Stratagene) was used as the reporter plasmid, and pRL-SV40 (Promega) was used in all assays for the normalization of transfection efficiency and cell growth. pECE-SV40-Gal4-VP16 was a gift from Lea Sistonen (Addgene plasmid #71728). The LXR-responsive reporter ABCA1-pGL3 was used for the full-length reporter gene assay.
The day before transfection, HEK293T cells were seeded in 96-well plates (4 × 10^4 cells/well). Before transfection, the medium was changed to Opti-MEM without any supplements. […] Luminescence was measured with a Spark 10 M luminometer (Tecan Deutschland GmbH). […] EC50/IC50 values and the standard errors thereof were calculated with the mean fold activation values by OriginPro, Version 2025 (OriginLab Corporation, Northampton, MA, USA), fitting a dose–response curve with a variable Hill slope (Levenberg–Marquardt algorithm). […]

In a further test the test system is HepG2 cells. Nature of the test: lipid accumulation assay (Oil Red O staining). The class given is cell-based. The following applies: 72 h. The procedure: HepG2 cells were seeded in collagen-coated 96-well plates at a density of 10^4 cells per well and incubated for 24 h. For the lipolytic mode, the cells were pretreated for additional 24 h with 66.7 μM oleic acid and 33.3 μM palmitic acid in culture medium with 1% bovine serum albumin (BSA). The cells were then treated with DMSO (0.1%) alone or in combination with test compounds in the culture medium. After 72 h, the cells were washed with PBS (2 × 50 μL) and fixed with 10% formalin solution (50 μL) for 15 min. After removal of the fixative, the cells were washed with H2O (2 × 50 μL), followed by 50 μL of 60% iPrOH and incubated with 50 μL Oil Red O solution (0.3% in 60% iPrOH) for 10 min to stain neutral lipids. The cells were washed quickly with 50 μL of 60% iPrOH and 2 × 50 μL of PBS. Microscopic images were taken using a 40x objective on a BZ-X810 microscope (KEYENCE, Frankfurt, Germany). Images were analyzed using ImageJ software (v1.54) according to a literature method.

For the next test, the system named is SREBP1c. The test is described as follows: qPCR of LXR-regulated mRNA expression in HepG2: SREBP1c. The following applies: HepG2, 24 h. The class given is cell-based, human. Background: Quantitative PCR measures a nucleic acid by following its amplification.

In the case of `CCN(C(=O)c1ccccc1)c1ccc(C(O)(C(F)(F)F)C(F)(F)F)cc1` [Compound 1, N-Ethyl-N-(4-[1,1,1,3,3,3-hexafluoro-2-hydroxypropan-2-yl]phenyl)benzamide], at LXRα, the classification result is on record as “agonist” and the “LXR modulation in Gal4 hybrid reporter gene assays (mode of action)” value is “partial agonists”. The EC50 on LXRα (classification agonist, read-out: LXRa pEC50/pIC50 (converted)) is 0.562 µM. The RORα activity entry on RORα (NR1F1) (off-target profiling, compared with T0901317) is on record as “no activity; also recorded: did not affect”. Besides, in the test on HepG2 cells (10 μM, compared to T0901317 10 μM), the “lipid accumulation (lipogenesis)” value is listed as “formation of less lipids in HepG2 cells than the structurally related full agonist T0901317; also recorded: induced lipogenesis after 72 h less efficiently”. Besides, in the test with SREBP1c (3 μM), the “SREBP1c mRNA expression” value was “induced”.
`CS(=O)(=O)c1cccc(-c2ccc(CN(Cc3cccc(C(F)(F)F)c3Cl)CC(c3ccccc3)c3ccccc3)cc2)c1` [Compound 3, N-(2-Chloro-3-[trifluoromethyl]benzyl)-N-([3′-{methylsulfonyl}-{1,1′-biphenyl}-4-yl]methyl)-2,2-diphenylethan-1-amine]: at LXRα, the IC50 – broadly, the concentration needed to halve the response being measured – is 7.59 µM; the classification entry was “antagonist”; the “LXR modulation in Gal4 hybrid reporter gene assays (mode of action)” value is given as “did not activate LXRs but suppressed LXR activation by the reference agonist T0901317”. The RORα activity entry at RORα (NR1F1) (30 μM) was “only activated RORα with low efficacy; also recorded: weak RORα activation”. Also, in the test with HepG2 cells (30 μM with T0901317 10 μM), the “effect on T0901317-induced lipogenesis” value is “significantly attenuated T0901317-induced lipogenesis; also recorded: mitigated T090-induced steatosis”. Also, in the test with HepG2 cells (30 μM), the “lipid accumulation (lipogenesis)” value was “did not induce lipid accumulation; also recorded: did not stimulate lipid accumulation”. Moreover, the “SREBP1c mRNA expression” value in the test on SREBP1c (30 μM) is recorded as “repressed SREBP1c expression; also recorded: robustly suppressed SREBP1c”. In addition, the mrna remaining at 30 µM in the test with SREBP1c (Homo sapiens, 30 μM) was determined as 10%.
